The target of one assay is T1, Neuromedin-K receptor (Homo sapiens, UniProt P29371).
T1 sequence (P29371 whole entry): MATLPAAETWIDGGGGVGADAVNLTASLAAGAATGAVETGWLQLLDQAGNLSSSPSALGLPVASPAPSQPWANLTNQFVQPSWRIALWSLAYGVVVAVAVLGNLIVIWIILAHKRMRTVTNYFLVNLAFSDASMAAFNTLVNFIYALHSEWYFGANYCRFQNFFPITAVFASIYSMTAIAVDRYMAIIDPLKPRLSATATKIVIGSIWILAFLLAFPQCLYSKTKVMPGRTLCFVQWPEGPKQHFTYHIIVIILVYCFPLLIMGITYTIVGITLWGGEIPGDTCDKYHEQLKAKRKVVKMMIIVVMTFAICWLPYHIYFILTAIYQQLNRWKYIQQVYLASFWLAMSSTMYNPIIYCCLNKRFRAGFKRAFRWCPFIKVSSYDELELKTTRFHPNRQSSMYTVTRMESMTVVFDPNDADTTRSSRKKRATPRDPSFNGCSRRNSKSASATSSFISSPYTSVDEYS
Put plainly: Tested for the biological activity and selectivity against NK-3 receptor.

In another assay the target is T2, Substance-K receptor (Homo sapiens, UniProt P21452).
T2 sequence (P21452 whole entry): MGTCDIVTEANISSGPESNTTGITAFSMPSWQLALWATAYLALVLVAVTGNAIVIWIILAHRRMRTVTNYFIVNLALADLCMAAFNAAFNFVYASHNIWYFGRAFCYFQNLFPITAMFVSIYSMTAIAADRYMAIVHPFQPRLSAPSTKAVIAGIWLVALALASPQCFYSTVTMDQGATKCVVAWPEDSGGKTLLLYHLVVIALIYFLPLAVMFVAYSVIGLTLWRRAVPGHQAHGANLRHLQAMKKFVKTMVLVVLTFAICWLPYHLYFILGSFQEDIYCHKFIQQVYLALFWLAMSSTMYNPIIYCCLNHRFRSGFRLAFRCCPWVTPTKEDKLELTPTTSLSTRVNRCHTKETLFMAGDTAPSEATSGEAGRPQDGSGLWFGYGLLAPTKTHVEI
Kind of assay: Tested for the biological activity and selectivity against NK-2 receptor.

A further assay concerns the target Substance-P receptor (Homo sapiens, UniProt P25103). Put plainly: Tested for the biological activity and selectivity against NK-1 receptor.

Starred links: 1 amine or outer side, 2 acyl side, 3 side chain; linkers in the order of their positions; H or OH if unused. Positions of bridges follow the written chain, without caps; N, C: chain ends. Non-standard residues stand in square brackets, D forms with d. Residues, ends and D or L forms follow the SMILES beside them. NGly(3-aminopropyl) = O=C(CN(CCCN[*:3])[*:1])[*:2]; N(2-Aminoethyl)Gly = O=C(CN(CCN[*:3])[*:1])[*:2]; Adipoyl = O=C(CCCCC(=O)[*:2])[*:1]; Glutaryl = O=C(CCCC(=O)[*:2])[*:1]; Suc = O=C(CCC(=O)[*:2])[*:1]

Sequence of Substance-P receptor (P25103 whole entry): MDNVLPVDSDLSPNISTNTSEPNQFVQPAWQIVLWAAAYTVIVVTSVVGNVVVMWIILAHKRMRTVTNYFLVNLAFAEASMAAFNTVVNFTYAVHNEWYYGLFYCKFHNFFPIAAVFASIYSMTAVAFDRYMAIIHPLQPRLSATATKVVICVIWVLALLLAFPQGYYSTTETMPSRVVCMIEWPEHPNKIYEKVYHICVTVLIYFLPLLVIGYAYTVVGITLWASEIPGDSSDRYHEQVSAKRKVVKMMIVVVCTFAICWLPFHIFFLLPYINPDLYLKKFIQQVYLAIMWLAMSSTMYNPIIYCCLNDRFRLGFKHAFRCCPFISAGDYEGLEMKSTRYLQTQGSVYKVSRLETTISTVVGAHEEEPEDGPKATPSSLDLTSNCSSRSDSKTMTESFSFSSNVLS

What is called EC50 is the midpoint of the concentration-response curve. A low value points to greater potency. Take `CSCC[C@H](NC(=O)[C@H](CC(C)C)NC(=O)CN1CCNC(=O)CCC(=O)NCC(=O)N[C@@H](CCCN=C(N)N)C(=O)N[C@@H](Cc2ccccc2)C(=O)N[C@@H](Cc2ccccc2)C1=O)C(N)=O` (GRFF[N(2-Aminoethyl)Gly]LM-NH2; linker N-5 via Suc): the results for the EC50 at Neuromedin-K receptor, at Substance-K receptor and on Substance-P receptor were > 10 µM, > 50 µM and > 10 µM, respectively.
On to `CSCC[C@H](NC(=O)[C@H](CC(C)C)NC(=O)CN1CCCNC(=O)CCCCC(=O)N[C@@H](CCCN=C(N)N)C(=O)N[C@@H](Cc2ccccc2)C(=O)N[C@@H](Cc2ccccc2)C1=O)C(N)=O` (RFF[NGly(3-aminopropyl)]LM-NH2; linker N-4 via Adipoyl), for which the EC50 was > 10 µM on Neuromedin-K receptor, > 50 µM at Substance-K receptor and 0.005 µM on Substance-P receptor.
For the compound `CSCC[C@H](NC(=O)[C@H](CC(C)C)NC(=O)CN1CCCNC(=O)CCCC(=O)N[C@@H](CCCN=C(N)N)C(=O)N[C@@H](Cc2ccccc2)C(=O)N[C@@H](Cc2ccccc2)C1=O)C(N)=O` (RFF[NGly(3-aminopropyl)]LM-NH2; linker N-4 via Glutaryl), the figures for the concentration for a half-maximal effect (EC50) on Neuromedin-K receptor, on Substance-K receptor and on Substance-P receptor were > 10 µM, > 50 µM and 0.011 µM, respectively.
With `CSCC[C@H](NC(=O)[C@H](CC(C)C)NC(=O)CN1CCCNC(=O)CCC(=O)N[C@@H](CCCN=C(N)N)C(=O)N[C@@H](Cc2ccccc2)C(=O)N[C@@H](Cc2ccccc2)C1=O)C(N)=O` (RFF[NGly(3-aminopropyl)]LM-NH2; linker N-4 via Suc), the EC50 is > 10 µM on Neuromedin-K receptor, > 50 µM on Substance-K receptor and 0.18 µM on Substance-P receptor.

The values are drawn from ChEMBL document CHEMBL1127569, “Comparison of the conformation of active and nonactive backbone cyclic analogs of substance P as a tool to elucidate features of the bioactive conformation: NMR and molecular dynamics in DMSO and water” (J Med Chem, 1994).
